Experimental data taken from US20220041613A1, “TYROSINE KINASE INHIBITOR COMPOSITIONS, METHODS OF MAKING AND METHODS OF USE” (Black Diamond Therapeutics, Inc., priority 2018, published 2022).
Entries after “also recorded” stand apart in the source; their conditions may differ. Where two headings read alike, the source gives them in different places.

Experiments:
EGFR WT = biological target: T1, EGFR WT (Homo sapiens, UniProt P00533); test: Assay for cell proliferation (CellTiterGlo), Activity for Inhibiting EGFR; format: cell-based; details: potency code, 3 days drug
T1 construct: endogenous in cells; host or cells: A431 (+H292)

EGFR NPH = biological target: T2, EGFR NPH (Homo sapiens, UniProt P00533, INS773NPH); test: Assay for cell proliferation (BaF3 transformants, CellTiterGlo), Activity for Inhibiting EGFR; format: cell-based; details: potency code, 3 days drug
T2 construct: expressed in transfected cells; host or cells: BaF3 (murine pro-B), retroviral pMXs-IRES-Blasticidin, selected for IL-3 independence
Protocol: (§1) Retroviral Production: EGFR mutants were subcloned into pMXs-IRES-Blasticidin (RTV-016, Cell Biolabs, San Diego, Calif.). Retroviral expression vector retrovirus was produced by transient transfection of HEK 293T cells with the retroviral EGFR mutant expression vector pMXs-IRES-Blasticidin (RTV-016, Cell Biolabs), pCMV-Gag-Pol vector and pCMV-VSV-G-Envelope vector. HEK 293T/17 cells were plated in 100 mm collagen coated plate (354450, Corning Life Sciences, Tewksbury, Mass.) (4×10^5 per plate) and incubated overnight. The next day, retroviral plasmids (3 μg of EGFR mutant, 1.0 μg of pCMV-Gag-Pol and 0.5 μg pCMV-VSV-G) were mixed in 500 μl of Optimem (31985, Life Technologies). The mixture was incubated at room temperature for 5 min and then added to Optimem containing transfection reagent Lipofectamine (11668, Invitrogen) and incubated for 20 minutes. Mixture was then added dropwise to HEK 293T cells. The next day the medium was replaced with fresh culture medium and retrovirus was harvested @ 24 and 48 hrs. Generation of EGFR mutant stable cell lines: BaF3 cells (1.5E5 cells) were infected with 1 ml of viral supernatant supplemented with 8 μg/ml polybrene by centrifuging for 30 min at 1000 rpm. Cells were placed in a 37° C. incubator overnight. Cells were then spun for 5 minutes to pellet the cells. Supernatant was removed and cells re-infected a fresh 1 ml of viral supernatant supplemented with 8 μg/ml polybrene by centrifuging for 30 min at 1000 rpm. Cells were placed in 37° C. incubator overnight. […] After 48 hours cells were selected for retroviral infection in 10 μg/ml Blasticidin for one week. Blasticidin resistant populations were washed twice in phosphate buffered saline before plating in media lacking IL-3 to select for IL-3 independent growth.
as §1, with “fresh 1 m1 of viral” for “fresh 1 ml of viral”

EGFR SVD = biological target: T3, EGFR SVD (Homo sapiens, UniProt P00533, INS770SVD); test: as above; format: cell-based; details: potency code, 3 days drug
T3 construct: expressed in transfected cells; host or cells: BaF3 (murine pro-B), retroviral pMXs-IRES-Blasticidin, selected for IL-3 independence
Protocol: as §1
as §1, with “fresh 1 m1 of viral” for “fresh 1 ml of viral”

EGFR V3 (EGFR-Viii) = biological target: T4, EGFR V3 (EGFR-Viii) (Homo sapiens, UniProt P00533, DELINS30-297G); test: as above; format: cell-based; details: potency code, 3 days drug
T4 construct: expressed in transfected cells; host or cells: BaF3 (murine pro-B), retroviral pMXs-IRES-Blasticidin, selected for IL-3 independence
Protocol: as §1
as §1, with “fresh 1 m1 of viral” for “fresh 1 ml of viral”

HER2 WT = biological target: T5, HER2 WT (Homo sapiens, UniProt P04626); test: Assay for cell proliferation (CellTiterGlo), Activity for Inhibiting HER2; format: cell-based
T5 construct: endogenous in cells; host or cells: BT474

HER2 S310F = biological target: T6, HER2 S310F (Homo sapiens, UniProt P04626, S310F); test: Assay for cell proliferation (BaF3 transformants, CellTiterGlo), Activity for Inhibiting HER2; format: cell-based; details: potency code, 3 days drug
T6 construct: expressed in transfected cells; host or cells: BaF3 (murine pro-B) transformants

HER2 YVMA = biological target: T7, HER2 YVMA (Homo sapiens, UniProt P04626, INS775YVMA); test: as above; format: cell-based; details: potency code, 3 days drug
T7 construct: expressed in transfected cells; host or cells: BaF3 (murine pro-B) transformants

HER2 S310F BaF3 tumors = test: Treatment of mice bearing HER2 mutant tumors, pHER2 and pERK via AlphaLisa; format: in vivo, Athymic nude mice; details: 15 mg/kg oral, two day acute dosing; at peak plasma levels
Protocol: Following the second dose, tumors were collected at 2 hours, 5 hours, 12 hours and 24 hours, and analyzed for both pHER2 activity and pERK activity via AlphaLisa. Plasma was also collected at these time points and analayzed for the presence of Compound No. 3 to determine pharmacokinetic profile. The tumor tissue was cut and homogenized using the Precellys Soft Tissue Homogenizing kit (KT03961-1-00.3.2) containing T-PER tissue protein extraction reagent (Thermo Scientific #78510), supplemented with Protease Inhibitor (Sigma P8340), and Phosphatase Inhibitors II and III (Sigma P5726 and P0044). Tissue samples were homogenized in the Precellys machine by spinning two times for one minute each. Sample tubes were centrifuged for 5 min at 15,000 rpm at 4° C. The supernatant was transferred to a fresh microtube and spun again for 5 minutes at 15,000 rpm at 4° C. Supernatant was then transferred to a fresh microtube and placed on ice. The protein concentration of the supernatant was measured using the BCA reagent Kit (Thermo Scientific #23225). Tumor tissue-derived lysates were analyzed for either HER2 activity or EGFR activity by detection of pHER2 (Tyr1221/1222) or pERK (Thr202/Tyr204) phosphosites, respectively, via AlphaLisa. […]

[1] = tested on: HER2-Δ16, HER2-C311R, HER2-S310F, HER4Δ16; test: Western blot under non-reducing conditions: monomeric and dimeric HER2 and HER4 levels; format: cell-based, Homo sapiens
Protocol: Monomeric and dimeric HER2 and HER4 levels were detected by resolving proteins under non-reducing conditions.
Monomeric and dimeric HER2 and HRE4 levels were detected by resolving proteins under non-reducing conditions.
Protein immunodetection was performed by electrophoretic transfer of SDS-PAGE separated proteins to nitrocellulose, incubation with antibody, and chemiluminescent second step detection. Nitrocellulose membranes were blocked with 5% nonfat dry milk in TBS and incubated overnight with primary antibody in 5% bovine serum albumin. […] Horseradish peroxidase-conjugated secondary antibodies were obtained from Cell Signaling Technology and used at 1:5000 dilution. Horseradish peroxidase-conjugated secondary antibodies were incubated in nonfat dry milk for 1 hour. SuperSignal chemiluminescent reagent (Pierce Biotechnology) was used according to the manufacturer's directions and blots were imaged using the Alpha Innotech image analyzer and AlphaEaseFC software (Alpha Innotech, San Leandro Calif.).

BaF3-HER2-Δ16 cells = test: Proliferation of BaF3-HER2-Δ16 cells; details: sub-saturating concentrations
Protocol: Assay for cell proliferation: BaF3 cell lines were resuspended at 1.3E5 c/ml in RPMI containing 10% Heat Inactivated FBS, 2% L-glutamine and 1% Pen/Strep and dispensed in triplicate (17.5E4 c/well) into 96 well plates. To determine the effect of drug on cell proliferation, cells incubated for 3 days in the presence of vehicle control or test drug at varying concentrations. Inhibition of cell growth was determined by luminescent quantification of intracellular ATP content using CellTiterGilo (Promega), according to the protocol provided by the manufacturer. Comparison of cell number on day 0 versus 72 hours post drug treatment was used to plot dose-response curves. The number of viable cells was determined and normalized to vehicle-treated controls. […] EC50 values were determined with the same application.

T5 sequence (P04626 23-1255): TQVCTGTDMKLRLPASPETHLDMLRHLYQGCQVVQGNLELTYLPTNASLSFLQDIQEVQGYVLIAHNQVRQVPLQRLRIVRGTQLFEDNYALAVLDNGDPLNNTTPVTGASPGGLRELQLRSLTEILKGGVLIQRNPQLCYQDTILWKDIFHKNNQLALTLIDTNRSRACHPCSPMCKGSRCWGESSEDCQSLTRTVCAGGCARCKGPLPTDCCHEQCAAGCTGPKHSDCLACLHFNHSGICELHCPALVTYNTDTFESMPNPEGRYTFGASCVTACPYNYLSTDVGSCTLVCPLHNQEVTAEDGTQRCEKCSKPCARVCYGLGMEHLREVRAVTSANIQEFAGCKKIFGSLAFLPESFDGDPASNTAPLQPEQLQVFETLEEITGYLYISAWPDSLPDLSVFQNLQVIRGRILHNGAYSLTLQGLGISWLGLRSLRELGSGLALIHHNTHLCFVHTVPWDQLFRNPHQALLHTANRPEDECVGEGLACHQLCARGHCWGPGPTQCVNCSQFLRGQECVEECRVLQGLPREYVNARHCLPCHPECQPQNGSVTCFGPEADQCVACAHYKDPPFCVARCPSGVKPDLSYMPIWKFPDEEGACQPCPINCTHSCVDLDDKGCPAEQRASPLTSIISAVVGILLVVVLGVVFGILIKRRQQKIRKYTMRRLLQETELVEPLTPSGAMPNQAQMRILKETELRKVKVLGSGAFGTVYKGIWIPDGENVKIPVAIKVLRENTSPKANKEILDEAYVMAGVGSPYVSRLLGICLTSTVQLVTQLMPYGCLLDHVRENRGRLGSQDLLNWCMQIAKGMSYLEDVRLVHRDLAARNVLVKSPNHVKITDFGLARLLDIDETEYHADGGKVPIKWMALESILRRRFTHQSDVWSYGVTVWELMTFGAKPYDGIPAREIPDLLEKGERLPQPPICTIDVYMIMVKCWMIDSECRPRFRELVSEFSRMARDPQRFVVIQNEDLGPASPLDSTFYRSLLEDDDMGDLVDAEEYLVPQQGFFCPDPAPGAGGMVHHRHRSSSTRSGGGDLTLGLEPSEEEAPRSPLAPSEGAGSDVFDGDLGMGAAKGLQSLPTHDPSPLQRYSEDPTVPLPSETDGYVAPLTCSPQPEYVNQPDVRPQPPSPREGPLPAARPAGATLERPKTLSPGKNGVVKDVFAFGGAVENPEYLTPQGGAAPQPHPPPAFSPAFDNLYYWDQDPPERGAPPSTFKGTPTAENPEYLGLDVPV
T1 sequence (P00533 25-1210): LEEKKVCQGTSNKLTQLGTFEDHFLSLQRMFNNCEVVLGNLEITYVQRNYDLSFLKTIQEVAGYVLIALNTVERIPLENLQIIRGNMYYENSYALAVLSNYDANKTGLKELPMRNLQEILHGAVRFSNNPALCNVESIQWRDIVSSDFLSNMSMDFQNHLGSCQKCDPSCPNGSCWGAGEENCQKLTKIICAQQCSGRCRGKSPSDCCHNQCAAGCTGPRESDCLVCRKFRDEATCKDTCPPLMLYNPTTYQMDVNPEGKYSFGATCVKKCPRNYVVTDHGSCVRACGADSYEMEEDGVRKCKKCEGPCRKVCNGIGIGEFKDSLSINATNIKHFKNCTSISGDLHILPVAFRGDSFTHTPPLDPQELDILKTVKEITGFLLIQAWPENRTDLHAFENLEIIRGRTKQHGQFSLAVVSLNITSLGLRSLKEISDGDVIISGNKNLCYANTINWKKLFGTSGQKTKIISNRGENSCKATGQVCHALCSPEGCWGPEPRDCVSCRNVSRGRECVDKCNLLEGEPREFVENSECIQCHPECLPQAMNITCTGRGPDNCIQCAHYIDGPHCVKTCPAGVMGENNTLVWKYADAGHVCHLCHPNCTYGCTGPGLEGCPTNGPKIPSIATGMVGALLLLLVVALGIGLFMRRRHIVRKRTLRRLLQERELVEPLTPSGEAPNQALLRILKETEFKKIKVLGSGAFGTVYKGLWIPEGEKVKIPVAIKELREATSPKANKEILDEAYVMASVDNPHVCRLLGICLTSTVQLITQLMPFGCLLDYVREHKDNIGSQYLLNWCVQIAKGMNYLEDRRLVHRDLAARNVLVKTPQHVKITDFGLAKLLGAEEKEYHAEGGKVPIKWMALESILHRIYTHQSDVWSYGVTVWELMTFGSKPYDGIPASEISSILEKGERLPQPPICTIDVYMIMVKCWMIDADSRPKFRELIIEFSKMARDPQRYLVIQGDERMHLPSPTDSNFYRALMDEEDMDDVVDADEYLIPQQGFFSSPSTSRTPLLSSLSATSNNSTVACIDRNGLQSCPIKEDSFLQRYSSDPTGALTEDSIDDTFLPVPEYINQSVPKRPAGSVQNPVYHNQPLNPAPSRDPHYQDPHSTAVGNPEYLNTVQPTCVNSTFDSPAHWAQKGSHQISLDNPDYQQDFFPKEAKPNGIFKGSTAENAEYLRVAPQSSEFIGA
T7 sequence (P04626 with tags, fused parts or gaps INS775YVMA): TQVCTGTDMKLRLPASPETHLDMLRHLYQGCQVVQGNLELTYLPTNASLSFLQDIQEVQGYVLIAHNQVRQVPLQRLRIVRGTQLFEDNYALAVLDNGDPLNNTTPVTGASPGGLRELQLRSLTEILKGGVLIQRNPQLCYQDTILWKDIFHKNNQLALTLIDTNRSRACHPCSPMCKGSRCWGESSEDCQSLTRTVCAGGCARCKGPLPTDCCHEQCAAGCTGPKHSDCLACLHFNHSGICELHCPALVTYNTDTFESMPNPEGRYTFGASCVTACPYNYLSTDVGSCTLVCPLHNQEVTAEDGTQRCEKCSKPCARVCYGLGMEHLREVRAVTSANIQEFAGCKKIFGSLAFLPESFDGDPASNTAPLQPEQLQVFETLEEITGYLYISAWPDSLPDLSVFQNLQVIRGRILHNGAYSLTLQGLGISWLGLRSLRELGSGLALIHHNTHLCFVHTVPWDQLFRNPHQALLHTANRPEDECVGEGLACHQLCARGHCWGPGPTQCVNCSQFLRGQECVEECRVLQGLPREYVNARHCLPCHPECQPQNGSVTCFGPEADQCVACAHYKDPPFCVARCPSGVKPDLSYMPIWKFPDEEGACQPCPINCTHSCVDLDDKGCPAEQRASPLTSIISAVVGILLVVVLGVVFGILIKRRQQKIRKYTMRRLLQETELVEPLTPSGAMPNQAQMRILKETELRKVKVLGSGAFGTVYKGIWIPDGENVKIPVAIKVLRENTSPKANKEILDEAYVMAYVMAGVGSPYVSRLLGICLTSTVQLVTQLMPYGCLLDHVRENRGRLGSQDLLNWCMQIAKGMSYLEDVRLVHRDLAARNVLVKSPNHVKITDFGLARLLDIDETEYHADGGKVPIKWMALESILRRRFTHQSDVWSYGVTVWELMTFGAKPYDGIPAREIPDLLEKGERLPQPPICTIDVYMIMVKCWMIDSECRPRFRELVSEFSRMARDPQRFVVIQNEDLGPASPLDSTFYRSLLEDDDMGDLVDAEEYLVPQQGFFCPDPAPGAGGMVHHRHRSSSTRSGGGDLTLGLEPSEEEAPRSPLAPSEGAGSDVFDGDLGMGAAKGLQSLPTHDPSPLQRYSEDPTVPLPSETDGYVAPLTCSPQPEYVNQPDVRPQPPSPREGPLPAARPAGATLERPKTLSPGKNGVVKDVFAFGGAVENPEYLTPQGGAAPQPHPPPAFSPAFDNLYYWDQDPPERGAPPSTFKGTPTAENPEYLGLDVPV
T6 sequence (P04626 23-1255 S310F): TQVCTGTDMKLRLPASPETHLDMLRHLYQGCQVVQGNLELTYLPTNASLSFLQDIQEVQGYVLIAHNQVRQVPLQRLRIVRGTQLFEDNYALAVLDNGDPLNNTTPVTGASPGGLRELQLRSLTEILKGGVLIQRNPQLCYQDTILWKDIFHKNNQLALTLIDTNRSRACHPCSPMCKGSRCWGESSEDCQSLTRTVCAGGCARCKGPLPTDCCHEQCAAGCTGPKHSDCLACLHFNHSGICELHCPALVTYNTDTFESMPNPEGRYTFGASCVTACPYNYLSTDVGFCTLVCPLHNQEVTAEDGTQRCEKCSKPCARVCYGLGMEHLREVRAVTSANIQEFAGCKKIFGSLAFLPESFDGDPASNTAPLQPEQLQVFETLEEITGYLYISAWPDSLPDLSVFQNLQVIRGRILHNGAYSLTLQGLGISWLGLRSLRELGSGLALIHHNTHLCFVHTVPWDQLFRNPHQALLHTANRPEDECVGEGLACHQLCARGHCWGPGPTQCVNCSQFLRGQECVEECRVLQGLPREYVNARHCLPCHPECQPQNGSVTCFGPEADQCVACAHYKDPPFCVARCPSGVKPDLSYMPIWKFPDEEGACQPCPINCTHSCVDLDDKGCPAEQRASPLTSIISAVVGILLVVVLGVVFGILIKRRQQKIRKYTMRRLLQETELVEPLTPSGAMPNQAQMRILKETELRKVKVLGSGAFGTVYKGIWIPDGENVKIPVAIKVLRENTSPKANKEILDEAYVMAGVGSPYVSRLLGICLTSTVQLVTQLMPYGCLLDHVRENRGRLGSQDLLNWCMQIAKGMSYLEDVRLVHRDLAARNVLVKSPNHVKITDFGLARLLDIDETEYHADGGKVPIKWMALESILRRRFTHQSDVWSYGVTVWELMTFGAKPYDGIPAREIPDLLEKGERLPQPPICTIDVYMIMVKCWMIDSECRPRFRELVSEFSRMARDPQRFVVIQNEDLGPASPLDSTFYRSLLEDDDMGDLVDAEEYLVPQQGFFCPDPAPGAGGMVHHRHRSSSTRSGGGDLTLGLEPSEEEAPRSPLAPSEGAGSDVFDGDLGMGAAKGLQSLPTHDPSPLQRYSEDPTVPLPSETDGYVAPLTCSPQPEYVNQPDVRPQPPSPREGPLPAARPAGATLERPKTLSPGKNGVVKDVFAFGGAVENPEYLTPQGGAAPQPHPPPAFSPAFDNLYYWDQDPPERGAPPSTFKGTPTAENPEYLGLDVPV

C=CC(=O)Nc1cc2c(Nc3ccc4c(cnn4Cc4cccc(F)c4)c3)ncnc2cc1OCCN1CCOCC1 [compound 3]
IC50 (EGFR WT; Table A (Example 2)): 0.2 to 0.3 µM
IC50 (EGFR WT; Table A): 0.2 to 0.3 µM
IC50 (EGFR NPH; Table A (Example 2)): 0.01 to 0.02 µM
IC50 (EGFR NPH; Table A): 0.01 to 0.02 µM
IC50 (EGFR SVD; Table A (Example 2)): 0.01 to 0.02 µM
IC50 (EGFR SVD; Table A): 0.01 to 0.02 µM
IC50 (EGFR V3 (EGFR-Viii); Table A (Example 2)): 0.01 to 0.02 µM
IC50 (EGFR V3 (EGFR-Viii); Table A): 0.01 to 0.02 µM
IC50 (HER2 WT; 'about ... or less', read-out: IC50 value for inhibiting wild-type HER2): ≤ 0.006 µM
IC50 (HER2 WT; Table B (Example 2), potency code, 3 days drug, read-out: HER2 WT): < 0.005 µM
IC50 (HER2 WT; Table B, potency code, 3 days drug, read-out: HER2 WT): < 0.005 µM
IC50 (HER2 S310F; Table B (Example 2)): 0.005 to 0.01 µM
IC50 (HER2 S310F; Table B): 0.005 to 0.01 µM
IC50 (HER2 YVMA; Table B (Example 2)): 0.02 to 0.03 µM
IC50 (HER2 YVMA; Table B): 0.02 to 0.03 µM
pERK1/2 (Thr202/Tyr204) in tumors (HER2 S310F BaF3 tumors): reduction
pHER2 (Tyr1221/1222) in tumors (HER2 S310F BaF3 tumors): reduction

CNC(=O)CN1CCC(Oc2cc3c(Nc4cccc(Cl)c4F)ncnc3cc2OC)CC1 [sapitinib]
covalent dimers of HER2 and HER4 extracellular variants [1]: levels of covalent dimers increased; also recorded: induce the expression of covalent dimers; also recorded: induce the formation of covalent dimers; also recorded: dose dependent increase in covalently dimerized receptors
proliferation of BaF3-HER2-Δ16 cells (BaF3-HER2-Δ16 cells): paradoxically stimulate the proliferation
